The record followed here is patent US20220089575A1, “FARNESOID X RECEPTOR AGONISTS AND USES THEREOF” (Metacrine, Inc., priority 2017, published 2022).

This test concerns the target T1, hFXR (Homo sapiens, UniProt Q96RI1).
T1 construct: expressed in transfected cells; host or cells: CV-1 cells
T1 sequence (Q96RI1 1-486): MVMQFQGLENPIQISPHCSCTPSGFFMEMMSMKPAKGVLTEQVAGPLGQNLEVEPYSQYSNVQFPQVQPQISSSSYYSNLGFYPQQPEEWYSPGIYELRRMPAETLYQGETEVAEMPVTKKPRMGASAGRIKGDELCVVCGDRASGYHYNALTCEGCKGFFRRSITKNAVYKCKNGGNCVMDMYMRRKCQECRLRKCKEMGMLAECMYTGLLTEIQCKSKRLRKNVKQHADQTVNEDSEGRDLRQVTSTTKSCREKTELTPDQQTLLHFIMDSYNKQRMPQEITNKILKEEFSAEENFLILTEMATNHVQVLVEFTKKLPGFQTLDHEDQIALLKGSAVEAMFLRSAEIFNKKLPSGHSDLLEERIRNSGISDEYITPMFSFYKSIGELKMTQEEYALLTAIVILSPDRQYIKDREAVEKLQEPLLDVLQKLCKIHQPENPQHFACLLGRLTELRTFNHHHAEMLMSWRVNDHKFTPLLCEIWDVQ
T1 sequence (P19793 1-462 partner): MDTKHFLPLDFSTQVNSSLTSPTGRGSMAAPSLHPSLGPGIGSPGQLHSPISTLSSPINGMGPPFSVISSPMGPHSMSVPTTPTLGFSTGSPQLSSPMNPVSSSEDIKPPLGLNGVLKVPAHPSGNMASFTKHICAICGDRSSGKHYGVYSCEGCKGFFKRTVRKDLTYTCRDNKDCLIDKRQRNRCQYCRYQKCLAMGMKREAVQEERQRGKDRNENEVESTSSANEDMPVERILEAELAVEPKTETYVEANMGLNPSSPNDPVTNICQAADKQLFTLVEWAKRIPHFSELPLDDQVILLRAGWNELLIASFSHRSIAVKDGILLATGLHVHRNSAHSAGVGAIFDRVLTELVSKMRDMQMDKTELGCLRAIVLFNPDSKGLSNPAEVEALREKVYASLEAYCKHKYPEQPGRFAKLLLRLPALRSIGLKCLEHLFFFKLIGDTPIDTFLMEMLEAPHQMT
The test can be described thus: In Vitro FXR Assay (TK): TK-ECRE-luc reporter in transfected CV-1 cells. In kind it is cell-based. The following applies: 18 hrs, luminescence, maximum efficacy of <25% of the Fexarmine control classified as '+'. The gist of the method:
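Cells are seeded in charcoal double-stripped FBS medium, transfected overnight with FXR/RXR expression and ECRE-driven luciferase reporter plasmids, then treated with serially diluted compounds for 18 h. Lysates are measured for luciferase light output.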
For orientation: EC50 means the midpoint of the concentration-response curve. As to `COc1ccc([C@H]2CC[C@H](CN(c3cc(-c4coc(C5CC5)n4)ccn3)C(=O)[C@H]3CC[C@H](NC(=O)COC(C)=O)CC3)CC2)cc1C` [Compound 26.17, 2-((trans-4-((4-(2-cyclopropyloxazol-4-yl)pyridine-2-yl)((trans-4-(4-methoxy-3-methylphenyl)cyclohexyl)methyl)carbamoyl)cyclohexyl)amino)-2-oxoethyl acetate], the EC50 is at most 250 nM.
The figure for `COc1ccc([C@H]2CC[C@H](CN(c3cc(-c4coc(C5CC5)n4)ccn3)C(=O)[C@H]3CC[C@H](NC(=O)CO)CC3)CC2)cc1C` [Compound 26.18, trans-N-(4-(2-Cyclopropyloxazol-4-yl)pyridin-2-yl)-4-(2-hydroxyacetamido)-N-((trans-4-(4-methoxy-3-methylphenyl)cyclohexyl)methyl) cyclohexanecarboxamide] is at most 250 nM.
As for `COc1ccc([C@H]2CC[C@H](CN(c3cccc(-c4coc(C5CC5)n4)c3)C(=O)[C@H]3CC[C@H](NC(C)=O)CC3)CC2)cc1C` [Compound 26.19, trans-4-Acetamido-N-(3-(2-cyclopropyloxazol-4-yl)phenyl)-N-((trans-4-(4-methoxy-3-methylphenyl)cyclohexyl)methyl) cyclohexanecarboxamide], the EC50 is at most 250 nM.
Regarding `COc1ccc([C@H]2CC[C@H](CN(c3cc(-c4coc(C5CC5)n4)ccn3)C(=O)[C@H]3CC[C@H](NC(C)=O)CC3)CC2)cc1C` [Compound 26.20, trans-4-Acetamido-N-(4-(2-cyclopropyloxazol-4-yl)pyridine-2-yl)-N-((trans-4-(4-methoxy-3-methylphenyl)cyclohexyl)methyl) cyclohexanecarboxamide], the EC50 is at most 250 nM.
Compound `COC(=O)N[C@H]1CC[C@H](C(=O)N(C[C@H]2CC[C@H](c3ccc(OC)c(C)n3)CC2)c2cc(-c3coc(C4CC4)n3)ccn2)CC1` [Compound 26.21, Methyl (trans-4-((4-(2-cyclopropyloxazol-4-yl)pyridine-2-yl)((trans-4-(5-methoxy-6-methylpyridin-2-yl)cyclohexyl)methyl)carbamoyl)cyclohexyl)carbamate] gave an EC50 of at most 250 nM.
`COc1ccc([C@H]2CC[C@H](CN(c3cc(-c4coc(C5CC5)n4)ccn3)C(=O)[C@H]3CC[C@H](CN)CC3)CC2)nc1C` [Compound 26.22, trans-4-(Aminomethyl)-N-(4-(2-cyclopropyloxazol-4-yl)pyridin-2-yl)-N-((trans-4-(5-methoxy-6-methylpyridin-2-yl)cyclohexyl)methyl) cyclohexanecarboxamide] yielded an EC50 of at least 1000 nM.
In turn, `COc1ccc([C@H]2CC[C@H](CN(c3cccc(-c4cnn(C5CC5)c4)c3)C(=O)[C@H]3CC[C@H](OC(=O)NCCNC(C)=O)CC3)CC2)cc1C` [Compound 26.23, trans-4-((3-(1-Cyclopropyl-1H-pyrazol-4-yl)phenyl)((trans-4-(4-methoxy-3-methylphenyl)cyclohexyl)methyl)carbamoyl)cyclohexyl (2-acetamidoethyl)carbamate] returned an EC50 of at most 250 nM.
On to `COc1ccc([C@H]2CC[C@H](CN(c3cccc(-c4cnn(C5CC5)c4)c3)C(=O)[C@H]3CC[C@H](OC(=O)NCCNS(C)(=O)=O)CC3)CC2)cc1C` [Compound 26.24, trans-4-((3-(1-Cyclopropyl-1H-pyrazol-4-yl)phenyl)((trans-4-(4-methoxy-3-methylphenyl)cyclohexyl)methyl)carbamoyl)cyclohexyl (2-(methylsulfonamido)ethyl)carbamate], for which the EC50 is at most 250 nM.
Compound `COC(=O)NCCNC(=O)O[C@H]1CC[C@H](C(=O)N(C[C@H]2CC[C@H](c3ccc(OC)c(C)c3)CC2)c2cccc(-c3cnn(C4CC4)c3)c2)CC1` [Compound 26.25, trans-4-((3-(1-Cyclopropyl-1H-pyrazol-4-yl)phenyl)((trans-4-(4-methoxy-3-methylphenyl)cyclohexyl)methyl)carbamoyl)cyclohexyl methyl ethane-1,2-diyldicarbamate] came in with an EC50 of at most 250 nM.
In the case of `COc1ccc([C@H]2CC[C@H](CN(c3cc(-c4coc(C5CC5)n4)ccn3)C(=O)[C@H]3CC[C@H](CNS(C)(=O)=O)CC3)CC2)nc1C` [Compound 26.26, trans-N-(4-(2-Cyclopropyloxazol-4-yl)pyridin-2-yl)-N-((trans-4-(5-methoxy-6-methylpyridin-2-yl)cyclohexyl)methyl)-4-(methylsulfonamidomethyl) cyclohexanecarboxamide], the EC50 is at most 250 nM.
In turn, `COC(=O)NC[C@H]1CC[C@H](C(=O)N(C[C@H]2CC[C@H](c3ccc(OC)c(C)n3)CC2)c2cc(-c3coc(C4CC4)n3)ccn2)CC1` [Compound 26.27, Methyl ((trans-4-((4-(2-cyclopropyloxazol-4-yl)pyridin-2-yl)((trans-4-(5-methoxy-6-methylpyridin-2-yl)cyclohexyl)methyl)carbamoyl)cyclohexyl)methyl)carbamate] registered an EC50 of at most 250 nM.
As to `CCOC(=O)NC[C@H]1CC[C@H](C(=O)N(C[C@H]2CC[C@H](c3ccc(OC)c(C)n3)CC2)c2cc(-c3coc(C4CC4)n3)ccn2)CC1` [Compound 26.28], the EC50 is at most 250 nM.
`COc1ccc([C@H]2CC[C@H](CN(c3cc(-c4coc(C5CC5)n4)ccn3)C(=O)[C@H]3CC[C@H](CNC(=O)CO)CC3)CC2)nc1C` [Compound 26.29, trans-N-(4-(2-Cyclopropyloxazol-4-yl)pyridin-2-yl)-4-((2-hydroxyacetamido)methyl)-N-((trans-4-(5-methoxy-6-methylpyridin-2-yl)cyclohexyl)methyl) cyclohexanecarboxamide] showed an EC50 of 250 to 1000 nM.
`COc1ccc([C@H]2CC[C@H](CN(c3cc(-c4cnn(C5CC5)c4)ccn3)C(=O)[C@H]3CC[C@H](NC(C)=O)CC3)CC2)cc1C` [Compound 26.30, trans-4-Acetamido-N-(4-(1-cyclopropyl-1H-pyrazol-4-yl)pyridin-2-yl)-N-((trans-4-(4-methoxy-3-methylphenyl)cyclohexyl)methyl) cyclohexanecarboxamide] gave an EC50 of at most 250 nM.
On to `COc1ccc([C@H]2CC[C@H](CN(c3cc(-c4cnn(C5CC5)c4)ccn3)C(=O)[C@H]3CC[C@H](NC(=O)COC(C)=O)CC3)CC2)cc1C` [Compound 26.31, 2-((trans-4-(4-(1-Cyclopropyl-1H-pyrazol-4-yl)pyridin-2-yl)((trans-4-(4-methoxy-3-methylphenyl)cyclohexyl)methyl)carbamoyl)cyclohexyl)amino)-2-oxoethyl acetate], for which the EC50 was at most 250 nM.
Next, `COc1ccc([C@H]2CC[C@H](CN(c3cc(-c4cnn(C5CC5)c4)ccn3)C(=O)[C@H]3CC[C@H](NC(=O)CO)CC3)CC2)cc1C` [Compound 26.32, trans-N-(4-(1-Cyclopropyl-1H-pyrazol-4-yl)pyridin-2-yl)-4-(2-hydroxyacetamido)-N-((trans-4-(4-methoxy-3-methylphenyl)cyclohexyl)methyl) cyclohexanecarboxamide]: at most 250 nM; `COc1ccc([C@H]2CC[C@H](CN(c3cc(-c4cnn(C(C)C)c4)ccn3)C(=O)[C@H]3CC[C@H](NC(C)=O)CC3)CC2)cc1C` [Compound 26.33, trans-4-Acetamido-N-(4-(1-isopropyl-1H-pyrazol-4-yl)pyridin-2-yl)-N-((trans-4-(4-methoxy-3-methylphenyl)cyclohexyl)methyl)cyclohexanecarboxamide]: at most 250 nM; `COc1ccc([C@H]2CC[C@H](CN(c3cc(-c4cnn(C(C)C)c4)ccn3)C(=O)[C@H]3CC[C@H](NC(=O)COC(C)=O)CC3)CC2)cc1C` [Compound 26.34, 2-((trans-4-((4-(1-Isopropyl-1H-pyrazol-4-yl)pyridin-2-yl)((trans-4-(4-methoxy-3-methylphenyl)cyclohexyl)methyl)carbamoyl)cyclohexyl)amino)-2-oxoethyl acetate]: at most 250 nM.
The compound `COc1ccc([C@H]2CC[C@H](CN(c3cc(-c4cnn(C(C)C)c4)ccn3)C(=O)[C@H]3CC[C@H](NC(=O)CO)CC3)CC2)cc1C` [Compound 26.35, trans-4-(2-Hydroxyacetamido)-N-(4-(1-isopropyl-1H-pyrazol-4-yl)pyridin-2-yl)-N-((trans-4-(4-methoxy-3-methylphenyl)cyclohexyl)methyl) cyclohexanecarboxamide] came in with an EC50 of at most 250 nM.
For the compound `CNC(=O)N[C@H]1CC[C@H](C(=O)N(C[C@H]2CC[C@H](c3ccc(OC)c(C)c3)CC2)c2cccc(-c3cnc(C4CC4)s3)c2)CC1` [Compound 26.36, trans-N-(3-(2-Cyclopropylthiazol-5-yl)phenyl)-N-((trans-4-(4-methoxy-3-methylphenyl)cyclohexyl)methyl)-4-(3-methylureido)cyclohexanecarboxamide], the EC50 is at most 250 nM.
